Where two headings read alike, the source gives them in different places.
Key:
[1] = Musculoskeletal adverse events, study A4141001
CYP2C19 = CYP2C19 (Homo sapiens, UniProt P33261); test: biochemical
Description: (§1) Human livers, HLM141, HLM143, and HLM144 were selected from the University of Washington Human Liver Bank for this study. […] The actual concentrations used for each of the other probes are specified below. […] The seven isoforms and the metabolic pathway of each of the probes used to monitor specific isoform activity are listed below.
CYP2C19: The 4′-hydroxylation of (S)-mephenytoin (50 μM). The reaction is monitored by quantitative GC/MS using mephenytoin-(d3-methyl) as the internal standard.

CYP2A6 = biological target: T1, CYP2A6 (Homo sapiens, UniProt P11509); test: biochemical
T1 sequence (P11509 1-494): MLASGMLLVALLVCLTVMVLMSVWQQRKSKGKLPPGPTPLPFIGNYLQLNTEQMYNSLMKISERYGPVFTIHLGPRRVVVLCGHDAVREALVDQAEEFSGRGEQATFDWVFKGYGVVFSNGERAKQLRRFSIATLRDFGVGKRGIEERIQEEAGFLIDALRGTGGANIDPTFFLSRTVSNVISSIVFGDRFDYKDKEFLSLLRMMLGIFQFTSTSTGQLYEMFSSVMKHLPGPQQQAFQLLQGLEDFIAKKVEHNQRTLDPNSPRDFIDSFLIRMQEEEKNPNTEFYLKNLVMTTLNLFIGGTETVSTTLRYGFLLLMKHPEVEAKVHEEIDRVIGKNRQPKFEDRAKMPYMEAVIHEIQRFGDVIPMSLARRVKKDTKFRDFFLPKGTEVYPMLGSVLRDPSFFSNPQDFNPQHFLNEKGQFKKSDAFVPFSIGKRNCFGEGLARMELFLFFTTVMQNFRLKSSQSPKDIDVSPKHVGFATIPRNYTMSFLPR
Description: as §1
CYP2A6: The 7-hydroxylation of coumarin (4 μM). The reaction is monitored by HPLC using florescence detection.

CYP1A2 = CYP1A2 (Homo sapiens, UniProt P05177); test: biochemical
Description: as §1
CYP1A2: The 6-hydroxylation of high concentrations (0.5 mM) of (R)-warfarin. The reaction is monitored by quantitative gas chromatographic/mass spectrometric (GC/MS) using 6-hydroxywarfarin-(d5-phenyl) as the internal standard.

[2] = system: STAM model of non-alcoholic steatohepatitis (NASH); conditions: for Sirius Red positive area (mean ± SD) / NAFLD Activity score, NAS (mean ± SD) / Fasting blood glucose (mean ± SD) / Plasma insulin (mean ± SD) / Liver hydroxyl-proline (mean ± SD) / Liver triglyceride (mean ± SD) / Non-fasting blood glucose (mean ± SD) / Plasma ALT (mean ± SD) / Plasma AST (mean ± SD) / Plasma ketone body (mean ± SD): STAM mice; for Fasting blood glucose (mean ± SD) / Plasma insulin (mean ± SD): Day 18, 8 hours of fasting; for Liver hydroxyl-proline (mean ± SD) / Liver triglyceride (mean ± SD) / Non-fasting blood glucose (mean ± SD) / Plasma ALT (mean ± SD) / Plasma AST (mean ± SD) / Plasma ketone body (mean ± SD): termination (Day 21)
Description: Telmisartan (Micardis®) was purchased from Boehringer Ingelheim GmbH (Germany) and dissolved in pure water.
Telmisartan was administered at a dose of 10 mg/kg once daily.
Measurement of whole blood and plasma biochemistry: Eight-hour fasting blood samples were collected from facial vein at 3 days prior to termination.
Eight-hour fasting blood glucose was measured in whole blood using Life Check (EIDIA Co. Ltd., Japan). For plasma biochemistry, eight-hour fasting blood was collected in polypropylene tubes with anticoagulant (Novo-Heparin, Mochida Pharmaceutical, Japan) and centrifuged at 1,000×g for 15 minutes at 4° C. The supernatant was collected and stored at −80° C. until use. Plasma insulin levels were quantified by Ultra Sensitive Mouse Insulin ELISA kit (Morinaga Institute of Biological Science, Inc., Japan).
On the day of termination, non-fasting blood glucose was measured in whole blood using Life Check. For plasma biochemistry, non-fasting blood was collected in polypropylene tubes with anticoagulant (Novo-Heparin) and centrifuged at 1,000×g for 15 minutes at 4° C. The supernatant was collected and stored at −80° C. until use. Plasma ALT, AST, ALP, GGT, BUN, creatinine and total bilirubin levels were measured by FUJI DRI-CHEM 7000 (Fujifilm Corporation, Japan). Plasma ketone body levels were quantified by EnzyChrom™ Ketone Body Assay Kit (BioAssay Systems, USA). […]
Histological analyses: For HE staining, sections were cut from paraffin blocks of liver tissue prefixed in Bouin's solution and stained with Lillie-Mayer's Hematoxylin (Muto Pure Chemicals Co., Ltd., Japan) and eosin solution (Wako Pure Chemical Industries). […] To visualize collagen deposition, Bouin's fixed liver sections were stained using picro-Sirius red solution (Waldeck, Germany). […]
Statistical analyses were performed using Bonferroni Multiple Comparison Test on GraphPad Prism 6 (GraphPad Software Inc., USA). […] Results were expressed as mean±SD.
The viability, clinical signs and behavior were monitored daily. Body weight was recorded before the treatment. […] The animals were sacrificed by exsanguination through direct cardiac puncture under isoflurane anesthesia (Pfizer Inc.) at 9 weeks of age.

[3] = study A4141001, patient type IIa
[4] = study A4141001, patient type IIa + IIb
[5] = study A4141001, patient type IIb
[6] = gemcabene 30 mg/kg PO QD, n = 8
[7] = gemcabene 100 mg/kg PO QD, n = 8
[8] = gemcabene 300 mg/kg PO QD, n = 8

Chain of CYP2C19 (P33261 whole entry, canonical isoform): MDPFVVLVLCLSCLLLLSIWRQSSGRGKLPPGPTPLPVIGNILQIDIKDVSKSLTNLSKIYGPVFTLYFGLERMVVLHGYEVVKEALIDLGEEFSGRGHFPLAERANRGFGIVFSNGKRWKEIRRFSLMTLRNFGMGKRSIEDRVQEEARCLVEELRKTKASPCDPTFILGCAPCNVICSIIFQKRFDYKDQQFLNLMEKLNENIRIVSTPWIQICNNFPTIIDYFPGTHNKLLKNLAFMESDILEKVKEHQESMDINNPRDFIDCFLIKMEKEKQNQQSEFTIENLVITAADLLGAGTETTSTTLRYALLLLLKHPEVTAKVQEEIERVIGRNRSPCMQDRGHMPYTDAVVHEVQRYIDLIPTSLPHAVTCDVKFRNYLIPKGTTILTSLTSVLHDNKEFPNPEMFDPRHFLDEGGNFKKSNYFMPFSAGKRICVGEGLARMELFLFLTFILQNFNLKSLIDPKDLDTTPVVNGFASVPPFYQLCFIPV
Chain of CYP1A2 (P05177 whole entry): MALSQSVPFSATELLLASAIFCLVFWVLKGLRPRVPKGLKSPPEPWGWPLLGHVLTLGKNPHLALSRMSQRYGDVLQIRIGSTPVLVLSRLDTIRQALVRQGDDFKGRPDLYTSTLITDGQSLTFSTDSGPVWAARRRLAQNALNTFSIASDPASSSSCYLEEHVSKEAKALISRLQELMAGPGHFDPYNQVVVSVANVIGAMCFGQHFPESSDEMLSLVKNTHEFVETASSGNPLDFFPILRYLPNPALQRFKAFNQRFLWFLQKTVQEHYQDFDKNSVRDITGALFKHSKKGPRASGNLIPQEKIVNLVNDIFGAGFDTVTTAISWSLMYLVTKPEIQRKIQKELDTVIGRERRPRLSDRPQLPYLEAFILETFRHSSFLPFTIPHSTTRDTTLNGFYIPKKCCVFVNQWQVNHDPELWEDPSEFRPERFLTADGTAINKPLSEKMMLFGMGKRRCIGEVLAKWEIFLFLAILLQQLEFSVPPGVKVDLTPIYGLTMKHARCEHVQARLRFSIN

- IC50 (CYP2C19): > 1500 µM
- IC50 (CYP2C19; human, microsomes): > 1500 µM
- IC50 (CYP2A6): > 1500 µM
- IC50 (CYP2A6; human, microsomes): > 1500 µM
- IC50 (CYP1A2): > 1500 µM
- IC50 (CYP1A2; human, microsomes): > 1500 µM
Compound: CC(C)(CCCCOCCCCC(C)(C)C(=O)O)C(=O)O [Gemcabene, 6,6′-oxybis(2,2-dimethylhexanoic acid)]
- % of patients experiencing a musculoskeletal adverse event [1, 3]: 0.0%
- No = number of muscle skeletal adverse events [1, 3]: 0
- % of patients experiencing a musculoskeletal adverse event [1, 4]: 0.0%
- No = number of muscle skeletal adverse events [1, 4]: 0
- % of patients experiencing a musculoskeletal adverse event [1, 5]: 0.0%
- No = number of muscle skeletal adverse events [1, 5]: 0
- Sirius Red positive area (mean ± SD) ([2]; gemcabene 30 mg/kg PO QD 6-9 wks): 0.56 ± 0.18%
- NAFLD Activity score, NAS (mean ± SD) ([2]; gemcabene 30 mg/kg PO QD 6-9 wks, n = 8): 3.4 ± 1.1
- Fasting blood glucose (mean ± SD) ([2]; gemcabene 30 mg/kg PO QD): 437 ± 42 mg/dL
- Plasma insulin (mean ± SD) ([2]; gemcabene 30 mg/kg PO QD): 0.13 ± 0.04 ng/mL
- Liver hydroxyl-proline (mean ± SD) ([2]; gemcabene 30 mg/kg PO QD): 0.66 ± 0.12 μg/mg total protein
- Liver triglyceride (mean ± SD) ([2]; gemcabene 30 mg/kg PO QD): 49.2 ± 8.6 mg/g liver
- Non-fasting blood glucose (mean ± SD) ([2]; gemcabene 30 mg/kg PO QD): 607 ± 48 mg/dL
- Plasma ALT (mean ± SD) ([2]; gemcabene 30 mg/kg PO QD): 41 ± 15 U/L
- Plasma AST (mean ± SD) ([2]; gemcabene 30 mg/kg PO QD): 100 ± 44 U/L
- Plasma ketone body (mean ± SD) ([2]; gemcabene 30 mg/kg PO QD): 9.43 ± 2.35 mM
- Sirius Red positive area (mean ± SD) ([2]; gemcabene 100 mg/kg PO QD 6-9 wks): 0.53 ± 0.18%
- NAFLD Activity score, NAS (mean ± SD) ([2]; gemcabene 100 mg/kg PO QD 6-9 wks, n = 8): 3.6 ± 1.4
- Fasting blood glucose (mean ± SD) ([2]; gemcabene 100 mg/kg PO QD): 441 ± 46 mg/dL
- Plasma insulin (mean ± SD) ([2]; gemcabene 100 mg/kg PO QD): 0.17 ± 0.06 ng/mL
- Liver hydroxyl-proline (mean ± SD) ([2]; gemcabene 100 mg/kg PO QD): 0.74 ± 0.38 μg/mg total protein
- Liver triglyceride (mean ± SD) ([2]; gemcabene 100 mg/kg PO QD): 58.4 ± 14.5 mg/g liver
- Non-fasting blood glucose (mean ± SD) ([2]; gemcabene 100 mg/kg PO QD): 653 ± 53 mg/dL
- Plasma ALT (mean ± SD) ([2]; gemcabene 100 mg/kg PO QD): 27 ± 7 U/L
- Plasma AST (mean ± SD) ([2]; gemcabene 100 mg/kg PO QD): 88 ± 32 U/L
- Plasma ketone body (mean ± SD) ([2]; gemcabene 100 mg/kg PO QD): 5.75 ± 3.24 mM
- Sirius Red positive area (mean ± SD) ([2]; gemcabene 300 mg/kg PO QD 6-9 wks): 0.59 ± 0.16%
- NAFLD Activity score, NAS (mean ± SD) ([2]; gemcabene 300 mg/kg PO QD 6-9 wks, n = 8): 2.5 ± 0.8
- Fasting blood glucose (mean ± SD) ([2]; gemcabene 300 mg/kg PO QD): 407 ± 15 mg/dL
- Plasma insulin (mean ± SD) ([2]; gemcabene 300 mg/kg PO QD): 0.13 ± 0.04 ng/mL
- Liver hydroxyl-proline (mean ± SD) ([2]; gemcabene 300 mg/kg PO QD): 0.70 ± 0.10 μg/mg total protein
- Liver triglyceride (mean ± SD) ([2]; gemcabene 300 mg/kg PO QD): 56.0 ± 13.9 mg/g liver
- Non-fasting blood glucose (mean ± SD) ([2]; gemcabene 300 mg/kg PO QD): 638 ± 63 mg/dL
- Plasma ALT (mean ± SD) ([2]; gemcabene 300 mg/kg PO QD): 32 ± 14 U/L
- Plasma AST (mean ± SD) ([2]; gemcabene 300 mg/kg PO QD): 147 ± 122 U/L
- Plasma ketone body (mean ± SD) ([2]; gemcabene 300 mg/kg PO QD): 5.68 ± 3.08 mM
- number of mice with Hepatocyte ballooning score 0 (None) [2, 6]: 4
- number of mice with Hepatocyte ballooning score 1 (Few balloon cells) [2, 6]: 2
- number of mice with Hepatocyte ballooning score 2 (Many cells/prominent ballooning) [2, 6]: 2
- number of mice with Lobular inflammation score 0 (No foci) [2, 6]: 1
- number of mice with Lobular inflammation score 1 (<2 foci/200x) [2, 6]: 2
- number of mice with Lobular inflammation score 2 (2-4 foci/200x) [2, 6]: 4
- number of mice with Lobular inflammation score 3 (>4 foci/200x) [2, 6]: 1
- number of mice with Steatosis score 1 (5-33%) [2, 6]: 8
- number of mice with Hepatocyte ballooning score 0 (None) [2, 7]: 1
- number of mice with Hepatocyte ballooning score 1 (Few balloon cells) [2, 7]: 4
- number of mice with Hepatocyte ballooning score 2 (Many cells/prominent ballooning) [2, 7]: 3
- number of mice with Lobular inflammation score 0 (No foci) [2, 7]: 2
- number of mice with Lobular inflammation score 1 (<2 foci/200x) [2, 7]: 1
- number of mice with Lobular inflammation score 2 (2-4 foci/200x) [2, 7]: 5
- number of mice with Steatosis score 1 (5-33%) [2, 7]: 8
- number of mice with Hepatocyte ballooning score 0 (None) [2, 8]: 4
- number of mice with Hepatocyte ballooning score 1 (Few balloon cells) [2, 8]: 3
- number of mice with Hepatocyte ballooning score 2 (Many cells/prominent ballooning) [2, 8]: 1
- number of mice with Lobular inflammation score 0 (No foci) [2, 8]: 2
- number of mice with Lobular inflammation score 1 (<2 foci/200x) [2, 8]: 2
- number of mice with Lobular inflammation score 2 (2-4 foci/200x) [2, 8]: 4
- number of mice with Steatosis score 0 (<5%) [2, 8]: 3
- number of mice with Steatosis score 1 (5-33%) [2, 8]: 5

Source: patent US20170172955A1, “Treatment of Mixed Dyslipidemia” (priority 2015, published 2017)
